Test results from US6162925A, “Antibiotic for methicillin resistant bacteria” (Research Corporation Tech., Inc., priority 1999, dated 2000).
Converted amounts (≈) assume the structure as drawn.

Experiments:
[1] = Antibiotic activity by bioassay against authentic TAN-1057 A/B; format: cell-based; settings: compared with authentic TAN-1057 A/B (Takeda)
Description: To a solution of 29 (40 mg, 0.045 mmol, 1.0 eq) in MeOH (1.5 mL)/CH2 Cl2 (0.5 mL) was added PdCl2 (40 mg). The reaction flask was degassed and charged with H2 (1 atm). The mixture was stirred for 30 min. The mixture was then purged with nitrogen, and filtered to remove the catalyst. The filtrate was concentrated and dried in vacuo to give a 2HCl salt of TAN-1057 A/B (1/2) (1:1, 20 mg, 100% yield) as an amorphous solid. This product was identical in mobility by HPLC, mnr and antibiotic activity by bioassay to authentic TAN-1057 A/B (Takeda). ^1 HNMR (300 MHz, D2 O): δ1.77 (4H, m); 2.85 (1H, dd, J=18, 9.3 Hz); 3.00 (1H, dd, J=18, 4.0 Hz); 3.17 (3H, s); 3.27 (2H, t, J=6.0 Hz); 3.70 (1H, m); 3.99 (2H, m); 5.14 (1H, dd, J=12, 8.5 Hz) ppm; IR (KBr pellet): 3350, 3179, 2955, 1696, 1622, 1395, 1205, 1135 cm^1. MS (ES^+): Calcd. (C13 H25 N9 O3 +H)=356.2, Found (M+H)=356.4.

[2] = Stability in 0.1 M phosphate buffer pH=5; format: physicochemical; settings: 0.1 M phosphate buffer at pH=5
Description: Compound 36 (10 mg, 0.012 mmol) was treated with anisole (0.1 mL) and TFA (1.0 mL) at 0° C. The mixture was stirred for 1 h at room temperature, concentrated and purified by PTLC (silica gel, CH2 Cl2 : MeOH, 6:1) to give 6.0 mg of a semi-solid. To a solution of this substance (6 mg, 0.0066 mmol, 1.0 eq) in MeOH (1.0 mL)/CH2 Cl2 (0.5 mL) was added PdCl2 (8.0 mg) After degassing with N2, the reaction mixture was charged with H2 (1 atm.) and the mixture was hydrogenated for 10 min. The mixture was then purged with nitrogen, and filtered to remove the catalyst. The filtrate was concentrated and dried in vacuo to give a 2HCl salt of TAN-1057 C/D (1:1, 3 mg ~100% yield) as an amorphous solid. ^1 H NMR (300 MHz, DMSO-d6 vs TMS): δ1.51 (4H, m); 2.82 (3H, s); 2.70-2.90 (2H, m); 3.09 (2H, m); 3.43 (1H, m); 3.79 (2H, m); 4.66 (1/2H, m); 4.75 (1/2H, m); 7.26 (6H, m); 7.86 (1H, br); 8.06 (1H, br); 8.70 (2H, br); 9.15 (1H, br); 10.35 (1H, br) ppm. MS (FAB): Calcd. for (C13 H25 N9 O3 +H)=356.2. Found: (M+H)=356.3; (M+2H)^++ =178.7.

[3] = tested on: Staphylococcus aureus ATCC 29213; assay: MIC, broth microdilution (NCCLS), S. aureus ATCC 29213; format: cell-based; settings: ATCC29213, S. aureus ATCC 29213, reference strain, 35° C., 20 h, read-out: Minimal Inhibitory Concentration (MIC)
Description: (§1) Test compounds were assayed against Staphylococcus aureus FDA 209P by the 10 fold agar disc diffusion assay on BHI-plates at pH=7 and pH=9 in accordance with the procedure from the National Committee for Clinical Laboratory Standards 1989. Susceptibility testing. A panel of 16 bacteria was used to evaluate the antimicrobial activity of the compounds (Table 2). The MIC of each antimicrobial agent was determined using a microdilution method according to NCCLS standards^1. Serial twofold dilutions of antibiotics were prepared in Mueller-Hinton broth (Difco Laboratories, Detroit, Mich.). Bacteria were grown to early log phase at 35° C. (1 hours) in Mueller-Hinton broth and cultures were diluted to achieve a final inoculum of 5×10^5 CFU per ml. Microtiter plates were incubated at 35° C. for 20 h and then were read using a Thermomax microplate reader (Molecular Devices, Sunnyvale, Calif.) and a microtiter plate reading mirror. The MIC was defined as the lowest concentration of antibiotic which inhibited the development of visible growth at the end of the incubation period. The standard reference strains were Staphyloccocus aureus ATCC […], Enterococcus faecalis ATCC 29212, E. faecium ATCC 35667, Escherichia coli ATCC 25922, and Pseudomonas aeruginosa ATCC 27853. Imipenem and vancomycin were used as antibiotic controls and values for reference strains were in accordance with the NCCLS.
Staphylococcus ATCC Reference strain

[4] = tested on: Staphylococcus aureus COL8A; assay: MIC, broth microdilution (NCCLS), S. aureus COL8A; format: cell-based; settings: 20 h, read-out: Minimal Inhibitory Concentration (MIC)
Description: as §1
(§2) Staphylococcus Methicillin
aureus COL8A susceptible, […]

[5] = tested on: Staphylococcus aureus PC1; assay: MIC, broth microdilution (NCCLS), S. aureus PC1; format: cell-based; settings: S. aureus PC1, Type A βlactamase hyperproducer, 35° C., 20 h, read-out: Minimal Inhibitory Concentration (MIC)
Description: as §1
Staphylococcus Type A βlactamase
aureus PC1 hyperproducer

[6] = tested on: Staphylococcus aureus sa ATCC 13709; assay: MIC, broth microdilution (NCCLS), S. aureus sa ATCC 13709; format: cell-based; settings: ATCC13709, S. aureus sa ATCC 13709, Smith strain, 35° C., 20 h, read-out: Minimal Inhibitory Concentration (MIC)
Description: as §1

[7] = tested on: Staphylococcus aureus COL; assay: MIC, broth microdilution (NCCLS), S. aureus COL; format: cell-based; settings: S. aureus COL, methicillin resistant, β-lactamase negative, 35° C., 20 h, read-out: Minimal Inhibitory Concentration (MIC)
Description: as §1, §2
aureus COL resistant, β-

Staphylococcus aureus 76 = assay: MIC, broth microdilution (NCCLS), S. aureus 76; format: cell-based; settings: Staphylococcus aureus; S. aureus 76, methicillin resistant, β-lactamase positive; 35° C., 20 h; read-out: Minimal Inhibitory Concentration (MIC)
Description: as §1, §2

[8] = tested on: Staphylococcus aureus ATCC 33593; assay: MIC, broth microdilution (NCCLS), S. aureus ATCC 33593; format: cell-based; settings: ATCC33593, S. aureus ATCC 33593, methicillin resistant, β-lactamase positive, 35° C., 20 h, read-out: Minimal Inhibitory Concentration (MIC)
Description: as §1
Staphylococcus ATCC Methicillin
aureus ATCC 33593 resistant, β-

[9] = tested on: Staphylococcus aureus sa201; assay: MIC, broth microdilution (NCCLS), S. aureus sa201; format: cell-based; settings: S. aureus sa201, clinical isolate Spain, methicillin resistant, β-lactamase positive, 35° C., 20 h, read-out: Minimal Inhibitory Concentration (MIC)
Description: as §1
Staphylococcus Clinical isolate,
aureus sa201 Spain resistant, β-

[10] = tested on: Staphylococcus haemolyticus UA281; assay: MIC, broth microdilution (NCCLS), S. haemolyticus UA281; format: cell-based; settings: S. haemolyticus UA281, methicillin resistant, 35° C., 20 h, read-out: Minimal Inhibitory Concentration (MIC)
Description: as §1, §2
haemolyticus UA281 resistant

[11] = tested on: Enterococcus faecalis ATCC 29212; assay: MIC, broth microdilution (NCCLS), E. faecalis ATCC 29212; format: cell-based; settings: ATCC29212, E. faecalis ATCC 29212, reference strain, 35° C., 20 h, read-out: Minimal Inhibitory Concentration (MIC)
Description: as §1
(§3) Enterococcus ATCC Reference strain

[12] = tested on: Enterococcus faecium ATCC 35667; assay: MIC, broth microdilution (NCCLS), E. faecium ATCC 35667; format: cell-based; settings: ATCC35667, E. faecium ATCC 35667, reference strain, 35° C., 20 h, read-out: Minimal Inhibitory Concentration (MIC)
Description: as §1, §3

[13] = tested on: Enterococcus faecium BM4147; assay: MIC, broth microdilution (NCCLS), E. faecium BM4147; format: cell-based; settings: E. faecium BM4147, vancomycin resistant, vanA, 35° C., 20 h, read-out: Minimal Inhibitory Concentration (MIC)
Description: as §1
Enterococcus Vancomycin
faecium BM4147 resistant, vanA

[14] = tested on: Enterococcus faecium efm040; assay: MIC, broth microdilution (NCCLS), E. faecium efm040; format: cell-based; settings: E. faecium efm040, clinical isolate U.S.A., ampicillin resistant, 35° C., 20 h, read-out: Minimal Inhibitory Concentration (MIC)
Description: as §1
Enterococcus Clinical isolate,
faecium efm040 U.S.A. resistant

[15] = tested on: Escherichia coli ATCC 25922; assay: MIC, broth microdilution (NCCLS), E. coli ATCC 25922; format: cell-based; settings: ATCC25922, E. coli ATCC 25922, reference strain, 35° C., 20 h, read-out: Minimal Inhibitory Concentration (MIC)
Description: as §1

[16] = tested on: Pseudomonas Aeruginosa ATCC 27853; assay: MIC, broth microdilution (NCCLS), P. aeruginosa ATCC 27853; format: cell-based; settings: ATCC27853, P. aeruginosa ATCC 27853, reference strain, 35° C., 20 h, read-out: Minimal Inhibitory Concentration (MIC)
Description: as §1

MRSA = settings: cited from earlier work
[17] = tested on: Gram-positive and Gram-negative bacteria; settings: S- versus R-configuration in the heterocyclic portion; cited from earlier work
[18] = cited from earlier work
[19] = cited from earlier work; remark: listed apart in the source

In the case of CN(C(=O)C[C@@H](N)CCCNC(=N)N)C1CNC(NC(N)=O)=NC1=O (stereo partly shown) [TAN-1057 A/B, 3S,5'S/R-3-amino-6-[(aminoiminomethyl)amino]-N-[2-[(aminocarbonyl)amino]-1,4,5,6-tetrahydro-4-oxo-5-pyrimidinyl)-N-methyl-hexanamide], the “antibiotic activity by bioassay” value [1] was “identical”.

For CN1C(=O)C[C@H](CCCNC(=N)N)NC(=O)C1CNC(=N)NC(N)=O (stereo partly drawn) [TAN-1057 C/D, [[[[5-[3-[(aminoiminomethyl)amino]propyl]hexahydro-(2S/R,5S)-1-methyl-3,7-dioxo-1H-1,4-diazepin-2-yl]methyl]amino]iminomethyl]urea], the “reversion upon standing in phosphate buffer” value [2] was “reverted to a mixture of 1 and 2”.

Compound CN(C(=O)C[C@@H](N)CCCNC(=N)N)[C@H]1CNC(NC(N)=O)=NC1=O [TAN-1057A] has an MIC [3] of 16 µg/mL (≈ 45 µM), an MIC [4] of 16 µg/mL (≈ 45 µM) and an MIC [5] of 8 µg/mL (≈ 22.5 µM). For the same compound, the MIC [6] was 16 µg/mL (≈ 45 µM), the MIC [7] was 16 µg/mL (≈ 45 µM) and the MIC (Staphylococcus aureus 76) was 16 µg/mL (≈ 45 µM). It also gave an MIC [8] of 16 µg/mL (≈ 45 µM), an MIC [9] of 16 µg/mL (≈ 45 µM) and an MIC [10] of 32 µg/mL (≈ 90 µM). The MIC [11] was 32 µg/mL (≈ 90 µM), the MIC [12] was 32 µg/mL (≈ 90 µM) and the MIC [13] was 32 µg/mL (≈ 90 µM). It also gave an MIC [14] of 128 µg/mL (≈ 360 µM), an MIC [15] of 256 µg/mL (≈ 720 µM) and an MIC [16] of 256 µg/mL (≈ 720 µM). The “activity against MRSA” value (MRSA) was “potent activity against all of the MRSA strains evaluated”, the “relative antibacterial activity of stereoisomers” value [17] was “more active than TAN-1057 B and C” and the “comparison to vancomycin in mice” value [18] was “compare very favorably to vancomycin in mice”. For the same compound, the hydrolysis ([19]; acidic and basic media, racemization of α-amino acid stereogenic center) was “occurs in both acidic and basic media” and the “loss of antibacterial activity in basic aqueous solutions” value ([19]; basic aqueous solutions, hydrolytic opening of six-membered ring) was “gradually lost their antibacterial activities in basic aqueous solutions”.
